Values after ≈ are worked out from the molar mass of the structure shown. Where a SMILES comes first, the peptide text is derived from it.
Columns and labels:
[1] = Transmission electron microscopy of peptide preparations; format: physicochemical; conditions: peptide alone, negative staining, TEM
Description: (§1) The presence of amyloid fibrils in the test samples was monitored by transmission electron microscopy (TEM). End-point solutions of peptides were collected and the samples were dissolved in the same solution to 0.2 mg/mL before studying with electron microscopy. A formvar-coated copper grid 400 mesh (Electron Microscopy Sciences, Hatfield, PA, USA) was placed on a 10 μL sample. After 5 min absorption, the grids with the preparation were negatively stained for 1.5–2.0 min with 1% (weight/volume) aqueous solution of uranyl acetate. The excess of the staining agent was removed with filter paper. The preparations were analyzed using a JEM-100C (Jeol, Tokyo, Japan) transmission electron microscope at the accelerating voltage of 80 kV. Images were recorded on the Kodak electron image film (SO-163) at nominal magnification of 40,000–60,000.

[2] = tested on: T. thermophilus cell culture; format: cell-based
Description: UV-Vis spectra were recorded using a spectrophotometr SF-102 (Akvilon, Moscow, Russia). At the end of the incubation, the density of the medium was estimated by spectrophotometry in a cuvette 10 mm with a total volume of 100 μL. The cuvettes were filled with the peptide water solutions and spectra were collected, using a wavelength from 600 nm. Biological activity of peptides was evaluated by their minimum concentration, which that may inhibit the growth of T. thermophilus bacteria culture. Biological activity of peptides was counted by using the following equation: (1) E=1−A (sample with peptide)/A (sample without peptide), where E is a biological activity of peptides, A is an optical absorption after 24 h incubation with and without peptide.
To construct a dose-effect curve and estimate the quantitative parameters of the curves, the statistical environment R and the drc package were used. The choice of model for describing the functional dependence was determined by several parameters: the logarithm of the maximum value of the likelihood function (logLik), the Akaike information criterion (IC), and the residual variance (Res var).
The algorithm for evaluating antimicrobial activity includes the study of this process and the dose–response relationship. The reaction of a biological object determines a quantitative assessment of the antimicrobial effect, depending not only on the concentration of the peptide, but also on the time of its action. Almost any impact begins with a certain threshold. An important final result of the experiment is the assessment of this threshold—the minimum inhibitory concentration (MIC) at which peptide influence is observed.

[3] = Thioflavine T fluorescence assay of peptide aggregation; format: physicochemical; conditions: peptide alone, ThT 0.2 mM, 37 °C
Description: Fibrils growth was monitored by thioflavine T (ThT) (Sigma-Aldrich, St. Louis, MO, USA) fluorescence. The kinetics of aggregation of peptides was studied using the method of fluorescence spectroscopy. Each kinetics graph was plotted based on the average of several results measured at different time intervals. To facilitate dissolution, all the samples of peptides were pre-dissolved in 100% DMSO, then buffers 50 mM Tris-HCl, pH 7.5, 150 mM NaCl or 20% acetic acid pH 2.0, 150 mM NaCl were added (1% final concentration DMSO) and filtered through […] membranes to remove small aggregates. ThT is the most commonly used fluorescent dye for the following amyloid formation semi-quantitatively in vitro. Free ThT has excitation and emission maxima at ∼350 and ∼450 nm, respectively (after binding to fibrils, the excitation and emission λmax change to ∼450 and ∼482–485 nm, respectively). A stock solution of ThT was prepared at a concentration of 20 mM in 50 mM Tris-HCl, pH 7.5, 150 mM NaCl or 20% acetic acid pH 2.0, 150 mM NaCl, respectively and stored at 4 °C protected from light. The final concentration of ThT was 0.2 mM, and each peptide was 0.2 mM. ThT was present in the sample during the fibril formation reaction. Measurements of ThT fluorescence were performed on a Cary Eclipse fluorescence spectrophotometer (Varian, Mulgrave, Australia) in quartz cells 3 × 3 mm at 37 °C.

[4] = tested on: ribosomal S1 protein from T. thermophilus; test: Electron microscopy, coaggregation of peptide with S1 protein
Description: as §1

T. thermophilus cells = test: Electron microscopy of intact and peptide-treated T. thermophilus cells; format: cell-based
Description: Along with the spectrophotometric method for determining the antimicrobial activity of peptides, the viability of cells was evaluated using electron microscopy. […] At the given peptide concentration, cells with a typical morphology and flagella were often found. Many protein aggregates were also observed. The absence of an antimicrobial effect with an increase in the concentration of the peptide to 1000 μg/mL, consistent with the spectrophotometry data of the antimicrobial activity of peptides (Figure 3).
as §1

CC[C@H](C)[C@H](NC(=O)[C@H](CCC(=O)O)NC(=O)[C@@H](NC(=O)[C@H](Cc1ccccc1)NC(=O)[C@@H](NC(=O)CNC(=O)[C@H](Cc1ccccc1)NC(=O)[C@H](CC(=O)O)NC(=O)[C@@H](NC(=O)[C@@H](NC(=O)CNC(=O)CN(C)C(=O)CNC(=O)CNC(=O)[C@H](CCCNC(=N)N)NC(=O)[C@H](CCCNC(=N)N)NC(=O)[C@H](CCCNC(=N)N)NC(=O)[C@H](CCC(N)=O)NC(=O)[C@H](CCCNC(=N)N)NC(=O)[C@H](CCCNC(=N)N)NC(=O)[C@H](CCCCN)NC(=O)[C@H](CCCCN)NC(=O)[C@@H](N)CCCNC(=N)N)C(C)C)[C@@H](C)O)C(C)C)C(C)C)C(=O)O [R23I] (HELM PEPTIDE1{R.K.K.R.R.Q.R.R.R.G.G.[Sar].G.V.T.D.F.G.V.F.V.E.I}$$$$V2.0; N-terminus and C-terminus assumed)
aggregate/fibril morphology according to electron microscopy [1]: aggregates of different sizes and complexes of aggregates are present | change of optical density of T. thermophilus culture over time ([2]; 50 μg/mL in medium, OD 600 nm versus sampling time, DMSO control reached 0.8): no increase in the optical density | minimal inhibitory concentration (MIC) ([2]; T. thermophilus culture, optical absorption at 600 nm after 24 h incubation, 5 repeats for R23I, 2 for R23T and V10I): 50 µg/mL (≈ 18.6 µM) | concentration at which a pronounced antibacterial effect is observed (no activity below) ([2]; T. thermophilus culture, additional concentrations 0.5-250 μg/mL tested): 40 µg/mL | concentration leading to formation of aggregates in solution and increase in optical density ([2]; culture medium, OD 600 nm): ≥ 500 µg/mL | amyloids in peptide preparation according to ThT fluorescence [3]: absence of R23I amyloids | morphology of peptide/S1 protein mixture by electron microscopy ([4]; peptide:S1 protein ratio 1:1): both the protein aggregates and fibrils were observed | morphology of peptide/S1 protein mixture by electron microscopy ([4]; peptide:S1 protein ratio 5:1 (S1:peptide = 1:5)): both the protein aggregates and fibrils were observed | cell morphology by electron microscopy (T. thermophilus cells; peptide 50 μg/mL): whole cells were practically absent | cell morphology by electron microscopy (T. thermophilus cells; peptide 100 μg/mL): the number of cells decreased | cell morphology by electron microscopy (T. thermophilus cells; peptide 1000 μg/mL): did not lead to the morphological changes compared with the control
